Legend:
Experiment in all cases: Agar well diffusion assay, zone of inhibition
Type in all cases: cell-based
Settings in all cases: samples at 100 μl, beyond the well diameter of 6 mm, mean±S.D.
[1] = system: Streptococcus pneumoniae (RCMB 010011)
Experimental: (§1) Antimicrobial activity of the reduced graphene oxide (rGO) nanoparticles was determined using the agar well diffusion assay method as described by Holder and Boyce, 1994. Three bacterial strains (two gram positive and one gram negative) and one yeast strain, namely, Bacillis subtilis (RCMB 010067), Staphylococcus pneumoniae (RCMB 010011), Escherichia coli (RCMB 010052), and Aspergillus fumigatus (RCMB 02568) were used for the antimicrobial assay.
(§2) The tested organisms were sub-cultured on nutrient agar medium (Oxoid laboratories, UK) for bacteria and Sabouraud dextrose agar (Oxoid laboratories, UK) for fungi. Ampicillin and Gentamicin were used as positive control for gram positive and gram negative bacteria, respectively, while Amphotericin B was used for fungi. The plates were done in triplicates. Bacterial cultures were incubated at 37° C. for 24 h, while the fungal cultures were incubated at 25-30° C. for 3-7 days. Antimicrobial activity was determined by measuring the zone of inhibition [A. Agwa, (2000)]. Samples were tested at a concentration of 100 μl; Data are expressed in the form of (M±S.D.): mean±standard deviation; Diameter of the inhibition zone (mm) beyond the well diameter of 6 mm; NT: not tested; NA: no activity.

[2] = system: Bacillis subtilis (RCMB 010068)
Experimental: as §1, §2

[3] = system: Pseudomonas aeruginosa (RCMB 010045)
[4] = system: Escherichia coli (RCMB 010054)
Experimental: as §1, §2

[5] = system: Aspergillus fumigatus (RCMB 02567)
Experimental: as §1, §2

[6] = system: Candida albicans (RCMB 05038)

CC1(C)S[C@@H]2[C@H](NC(=O)[C@H](N)c3ccccc3)C(=O)N2[C@H]1C(=O)O [Ampicillin]
Diameter of the inhibition zone [1]: 21.0 ± 1.0 mm | Diameter of the inhibition zone [2]: 31.3 ± 1.5 mm

Gentamicin
Diameter of the inhibition zone [3]: 16.0 ± 1.0 mm | Diameter of the inhibition zone [4]: 20.3 ± 0.58 mm

C[C@@H]1[C@H](O)[C@@H](C)/C=C/C=C/C=C/C=C/C=C/C=C/C=C/[C@H](O[C@@H]2O[C@H](C)[C@@H](O)[C@H](N)[C@@H]2O)C[C@@H]2O[C@](O)(C[C@@H](O)C[C@@H](O)[C@H](O)CC[C@@H](O)C[C@@H](O)CC(=O)O[C@H]1C)C[C@H](O)[C@H]2C(=O)O [Amphotericin B]
Diameter of the inhibition zone [5]: 21.7 ± 1.5 mm | Diameter of the inhibition zone [6]: 22.7 ± 1.5 mm

Source: patent US9850133B2, “Green synthesis of reduced graphene oxide using Nigella sativa seed extract” (KING SAUD UNIVERSITY, priority 2016, dated 2017)
